Laboratory results as given in article PMC11638965, “Leveraging Dual-Ligase Recruitment to Enhance Protein Degradation via a Heterotrivalent Proteolysis Targeting Chimera” (Journal of the American Chemical Society, 2024).
“And” between values parts separate entries of the source, which are not always exact repeats. Equal entries are not always repeated.

Experiments:
[1] = biological target: T1, BRD4^Short (Homo sapiens, UniProt O60885); assay: Western blot dose-response degradation in HEK293 cells; format: cell-based; conditions: 6 h, mean ± S.E.M. of three experiments, values marked b mean ± S.D. of two
T1 construct: Western blot data for BET, CRBN and VHL protein levels; endogenous in cells; host or cells: HEK293 (ATCC)
Description: (§1) HEK293 cells were obtained from ATCC. HEK293 was cultured in DMEM supplemented with 10% (v/v) fetal bovine serum (FBS), 1% […] and 1% (v/v) penicillin/streptomycin (pen/strep) at 37 °C, 5% CO2, and 95% humidity.
(§2) HEK293 cells were plated at a density of 5 × 10^5 cells per well of a six well plate a day prior to initiation of the experiment. Compounds were dissolved to a 10 mM concentrated stock solution in DMSO from which the compounds were further diluted to a working concentration range of 1 μM to 100 pM in DMEM and was subsequently added to cells at the initiation of the experiment. An additional vehicle control was added to cells alongside compound treatments. Cells were left to incubate with compound for 6 h at 37 °C, 5% CO2, and 95% humidity. Cells were then subsequently washed twice with PBS before being harvested in RIPA buffer supplemented with protease inhibitor cocktail and Benzonase Nuclease before being store at −20 °C.
(§3) Protein concentration was determined using the BCA assay. Samples were then prepared in LDS buffer containing 5% 1 M DTT and subsequently loaded onto NuPAGE 4–12% Bis-Tris Midi gels, followed by the transfer of the proteins onto nitrocellulose membranes. The membranes were blocked for 1 h prior to incubation with the primary antibodies using 5% Milk TBST. Membranes were incubated at 4 °C in either BRD4(Ab128874), BRD3(Ab50818), BRD2(Ab139690), VHL(CST#68547) and CRBN(CST#71810) primary antibody overnight. Following overnight incubation, the membranes were incubated with complementary IRDye 800CW secondary antibody and a hFAB Rhodamine Anti-Tubulin Primary Antibody (loading control) for 1 h and then imaged with a Bio-Rad imager. All Western blots were analyzed for band intensities using Image Lab (Bio-Rad). The data extracted from these blots were then plotted and analyzed using Prism (v. 10.2.2, GraphPad). Linear regression curve fitting was used to calculate pDC50 values. The standard deviation of the pDC50 was calculated for all compounds that had two independent repeats and the standard error of the mean calculated for all compounds that had three independent repeats. All Western blotting figures were developed in Adobe illustrator.

[2] = biological target: T2, BRD2 (Homo sapiens, UniProt P25440); assay: as above; format: cell-based; conditions: 6 h; for DC50: mean ± S.E.M. of three experiments, values marked b mean ± S.D. of two
T2 construct: HiBiT, is appended to the N-terminus of endogenous BRD2, BRD3, and BRD4; endogenous in cells
Description: as §1, §2, §3

[3] = biological target: T3, BRD4^Long (Homo sapiens, UniProt O60885); assay: as above; format: cell-based; conditions: HEK293 cells, 6 h, Western blot; mean ± S.E.M. of three experiments, values marked b mean ± S.D. of two
T3 construct: Western blot data for BET, CRBN and VHL protein levels; endogenous in cells; host or cells: HEK293 (ATCC)
Description: as §1, §2, §3

[4] = biological target: T4, BRD3 (Homo sapiens, UniProt Q15059); assay: as above; format: cell-based; conditions: 6 h, mean ± S.E.M. of three experiments, values marked b mean ± S.D. of two
T4 construct: HiBiT, is appended to the N-terminus of endogenous BRD2, BRD3, and BRD4; endogenous in cells
Description: as §1, §2, §3

[5] = biological target: CRBN (Homo sapiens, UniProt Q96SW2); assay: as above; format: cell-based; design: Western blot data for BET, CRBN and VHL protein levels; endogenous in cells; host or cells: HEK293 (ATCC); conditions: for fold weaker degradation of CRBN compared with aniline tethered matched pair: 31 and 32 compared with 23 and 27, respectively, DC50, HEK293 Western blot; for DC50: HEK293 cells, 6 h, Western blot, mean ± S.E.M. of three experiments, values marked b mean ± S.D. of two
Description: as §1, §2, §3

[6] = biological target: T2, BRD2; assay: Live cell kinetic HiBiT degradation assay, HiBiT-BRD2 HEK293 cells; format: cell-based; conditions: for λmax BRD2 (degradation rate): HiBiT-BRD2 knock-in HEK293 cells
Description: (§4) HEK293 HiBiT-BRD2 (LgBiT stable), HEK293 HiBiT-BRD3 (LgBiT stable), and HEK293 HiBiT-BRD4 (LgBiT stable) were created using CRISPR/Cas9 to insert at HiBiT tag at the N-terminal genomic loci of BRD2, BRD3, or BRD4 in a cell line stably expressing LgBiT protein as described previously.[23]
(§5) For kinetic degradation experiments, HEK293 HiBiT-BRD2, 3, or 4 (LgBiT stable) cells and HEK293 HiBiT-BRD4 (LgBiT) CRBN KO and VHL KO cells were plated at 20,000 cells/well in DMEM +10% FBS in white 96-well tissue culture plates and allowed to adhere overnight. The next day, media was removed and 90 μL of prewarmed CO2-independent medium (Gibco) containing Endurazine (Promega) at a 1:100 dilution from stock was added. Plates were incubated at 37 °C for 3 h to allow luminescence to equilibrate. A threefold dilution series of each PROTAC at 10x the desired final concentration was prepared (with the amount of DMSO in each treatment condition kept constant). After luminescence equilibration, a preread luminescence measurement was taken (prior to compound addition) to allow for baseline normalization to account for possible plating differences. Cells were then treated with 10 μL of the prepared PROTAC dilution series (in triplicate or quadruplicate). Treated plates were placed in a GloMax Discover luminometer (Promega) prewarmed to 37 °C and luminescence measurements were obtained every 7 min for 24 h. Kinetic degradation plots were obtained by first normalizing time course luminescence readings in each well to the preread measurement, then to the average value of the DMSO only control at each time point. Data was analyzed using GraphPad Prism (version 8) and excel. Dmax values were identified as the lowest luminescence reading in each well. Rate constant values were calculated using a one phase exponential decay Y = (Y0-Plateau) e(K*^X) + Plateau using Prism (Y0 constrained to 1). Dmax 50 values were calculated by plotting Dmax as a function of concentration, then fitting plots using the following equation: [drawing 1] to determine IC50.

[7] = biological target: T4, BRD3; assay: Live cell kinetic HiBiT degradation assay, HiBiT-BRD3 HEK293 cells; format: cell-based; conditions: for DC50: HiBiT-BRD3 CRISPR knock-in HEK293 cells, live cell kinetic degradation, 24 h, read-out: Dmax 50 BRD3; for λmax BRD3 (degradation rate): HiBiT-BRD3 knock-in HEK293 cells
Description: as §4, §5

[8] = tested on: KBM7 cells; assay: Cell viability assay (CellTiter-Glo); format: cell-based, human; conditions: Homo sapiens, KBM-7; WT KBM7, 5.12 pM to 10 uM, n = 3 (Table S4)
Description: (§6) Cells were seeded in 96-well plates at a cell density of […], and each treatment was performed in biological triplicates. Cell viability was assessed using the CellTiter-Glo assay (CellTiter-Glo Luminescent Cell Viability Assay, Promega G7573) according to manufacturer instructions. Luminescence signal was measured on a Multilabel Plate Reader Platform Victor X3 model 2030 (PerkinElmer). Survival curves and EC50 values were determined using GraphPad Prism v.10.0.3 by fitting a nonlinear regression to the log10-transformed drug concentration and the relative viability after normalization of each data point to the mean luminescence of the lowest drug concentration.

[9] = tested on: K562 cells; assay: Cell viability assay (CellTiter-Glo); format: cell-based, human; conditions: Homo sapiens; WT K562, 5.12 pM to 10 uM, n = 3 (Table S4)
Description: as §6

T2 sequence (P25440 whole entry): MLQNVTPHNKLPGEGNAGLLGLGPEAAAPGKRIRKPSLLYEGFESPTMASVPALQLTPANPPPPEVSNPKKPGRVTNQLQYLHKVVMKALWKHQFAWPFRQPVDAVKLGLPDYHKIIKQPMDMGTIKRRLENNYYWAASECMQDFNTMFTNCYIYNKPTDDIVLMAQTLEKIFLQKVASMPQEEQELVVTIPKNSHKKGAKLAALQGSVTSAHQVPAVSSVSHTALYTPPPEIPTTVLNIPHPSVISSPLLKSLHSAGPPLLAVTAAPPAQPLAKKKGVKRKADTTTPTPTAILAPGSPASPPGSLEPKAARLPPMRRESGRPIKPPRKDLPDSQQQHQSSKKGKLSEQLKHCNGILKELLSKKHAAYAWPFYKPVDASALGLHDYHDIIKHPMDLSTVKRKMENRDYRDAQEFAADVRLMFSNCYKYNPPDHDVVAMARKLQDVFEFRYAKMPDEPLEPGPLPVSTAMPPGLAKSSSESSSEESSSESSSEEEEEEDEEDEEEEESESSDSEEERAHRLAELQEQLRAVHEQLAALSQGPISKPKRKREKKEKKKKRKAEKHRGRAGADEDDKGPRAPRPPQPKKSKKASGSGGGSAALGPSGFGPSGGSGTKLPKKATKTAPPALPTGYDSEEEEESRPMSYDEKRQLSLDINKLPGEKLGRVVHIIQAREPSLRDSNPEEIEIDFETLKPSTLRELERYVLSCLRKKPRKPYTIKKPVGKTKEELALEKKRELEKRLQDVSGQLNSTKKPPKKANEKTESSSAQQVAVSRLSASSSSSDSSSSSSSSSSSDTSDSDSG
Chain of CRBN (Q96SW2 whole entry): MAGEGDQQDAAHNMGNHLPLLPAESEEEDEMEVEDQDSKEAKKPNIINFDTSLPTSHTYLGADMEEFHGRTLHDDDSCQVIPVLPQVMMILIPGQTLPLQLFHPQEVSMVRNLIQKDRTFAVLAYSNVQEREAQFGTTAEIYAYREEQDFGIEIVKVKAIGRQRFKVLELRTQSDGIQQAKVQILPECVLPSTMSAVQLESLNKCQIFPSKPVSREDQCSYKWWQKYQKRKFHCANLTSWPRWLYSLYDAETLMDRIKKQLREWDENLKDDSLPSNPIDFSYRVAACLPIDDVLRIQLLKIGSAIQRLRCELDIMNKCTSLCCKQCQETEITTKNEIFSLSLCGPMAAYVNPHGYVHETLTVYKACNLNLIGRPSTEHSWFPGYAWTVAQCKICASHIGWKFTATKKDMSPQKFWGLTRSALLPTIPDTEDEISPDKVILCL
T4 sequence (Q15059 whole entry): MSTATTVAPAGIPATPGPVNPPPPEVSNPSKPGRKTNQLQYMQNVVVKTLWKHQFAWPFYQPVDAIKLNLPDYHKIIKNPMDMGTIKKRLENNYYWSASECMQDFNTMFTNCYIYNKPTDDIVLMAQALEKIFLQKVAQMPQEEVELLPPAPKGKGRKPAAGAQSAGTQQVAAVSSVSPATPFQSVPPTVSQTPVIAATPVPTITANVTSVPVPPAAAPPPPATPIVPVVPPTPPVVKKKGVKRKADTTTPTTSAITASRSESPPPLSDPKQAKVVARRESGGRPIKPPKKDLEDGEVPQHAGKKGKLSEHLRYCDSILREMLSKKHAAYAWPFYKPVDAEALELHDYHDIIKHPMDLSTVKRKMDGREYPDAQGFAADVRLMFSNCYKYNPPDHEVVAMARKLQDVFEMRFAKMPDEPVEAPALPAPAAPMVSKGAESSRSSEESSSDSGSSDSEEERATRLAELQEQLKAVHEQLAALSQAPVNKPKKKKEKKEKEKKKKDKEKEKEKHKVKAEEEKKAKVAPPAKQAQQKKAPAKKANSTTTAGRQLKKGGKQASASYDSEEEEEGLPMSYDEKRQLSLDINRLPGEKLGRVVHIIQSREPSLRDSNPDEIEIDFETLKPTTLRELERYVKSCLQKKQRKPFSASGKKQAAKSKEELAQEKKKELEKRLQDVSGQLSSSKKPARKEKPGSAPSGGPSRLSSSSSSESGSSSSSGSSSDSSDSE

| DC50 [1] | DC50 [2] | DC50 [3] | DC50 [4] | fold weaker degradation of CRBN compared with aniline tethered matched pair [5] | DC50 [5] | λmax BRD2 (degradation rate) [6] | DC50 [7] | λmax BRD3 (degradation rate) [7] | EC50 [9] | DC50 ([6]; HiBiT-BRD2 CRISPR knock-in HEK293 cells, live cell kinetic degradation, 24 h, read-out: Dmax 50 BRD2) | Dmax [2] | onset of the hook effect, BRD2 [2] | SMILES | EC50 [8] |
| --- | --- | --- | --- | --- | --- | --- | --- | --- | --- | --- | --- | --- | --- | --- |
| 15 ± 2.4 nM | 52 ± 9.4 nM | 14 ± 3.9 nM | 14 ± 2.9 nM | 2.9 fold | 580 ± 240 nM | 1.90 h⁻¹ and 1.9 h⁻¹ | 6.2 nM | 2.36 h⁻¹ | 494 nM | – | – | – | Cc1ncsc1-c1ccc(CNC(=O)[C@@H]2C[C@@H](O)CN2C(=O)[C@@H](NC(=O)COCC(C)(COCCOCCOCCOC(=O)C[C@@H]2N=C(c3ccc(Cl)cc3)c3c(sc(C)c3C)-n3c(C)nnc32)COCCOCCOCCN2CCN(c3cccc4c3C(=O)N(C3CCC(=O)NC3=O)C4=O)CC2)C(C)(C)C)cc1 (mixture of isomers) [AB3029 (31), (17S)-11-((2-(2-(2-(4-(2-(2,6-dioxopiperidin-3-yl)-1,3-dioxoisoindolin-4-yl)piperazin-1-yl)ethoxy)ethoxy)ethoxy)methyl)-17-((2S,4R)-4-hydroxy-2-((4-(4-methylthiazol-5-yl)benzyl)carbamoyl)pyrrolidine-1-carbonyl)-11,18,18-trimethyl-15-oxo-3,6,9,13-tetraoxa-16-azanonadecyl 2-((S)-4-(4-chlorophenyl)-2,3,9-trimethyl-6H-thieno[3,2-f][1,2,4]triazolo[4,3-a][1,4]diazepin-6-yl)acetate] | 294 nM |
| 9.4 ± 1.9 nM | 28 ± 7.3 nM | 7.3 ± 2.1 nM | 6.4 ± 1.9 nM | 3.7 fold | 730 ± 270 nM | 2.04 h⁻¹ | 1.7 nM | 2.97 h⁻¹ | 192 nM | 25 nM | – | – | Cc1ncsc1-c1ccc(CNC(=O)[C@@H]2C[C@@H](O)CN2C(=O)[C@@H](NC(=O)COCC(C)(COCCOCCOCCOC(=O)C[C@@H]2N=C(c3ccc(Cl)cc3)c3c(sc(C)c3C)-n3c(C)nnc32)COCCOCCOCCN2CCN(c3cc4c(cc3F)C(=O)N(C3CCC(=O)NC3=O)C4=O)CC2)C(C)(C)C)cc1 (mixture of isomers) [AB3030 (32), (17S)-11-((2-(2-(2-(4-(2-(2,6-dioxopiperidin-3-yl)-6-fluoro-1,3-dioxoisoindolin-5-yl)piperazin-1-yl)ethoxy)ethoxy)ethoxy)methyl)-17-((2S,4R)-4-hydroxy-2-((4-(4-methylthiazol-5-yl)benzyl)carbamoyl)pyrrolidine-1-carbonyl)-11,18,18-trimethyl-15-oxo-3,6,9,13-tetraoxa-16-azanonadecyl 2-((S)-4-(4-chlorophenyl)-2,3,9-trimethyl-6H-thieno[3,2-f][1,2,4]triazolo[4,3-a][1,4]diazepin-6-yl)acetate] | 78 nM |
| 11 ± 3.7 nM | 58 ± 16 nM | 2.5 ± 0.5 nM | 11 ± 4.6 nM | – | 200 ± 110 nM | 1.12 h⁻¹ | 5.7 nM | 2.06 h⁻¹ | 212 nM | – | – | – | Cc1ncsc1-c1ccc(CNC(=O)[C@@H]2C[C@@H](O)CN2C(=O)[C@@H](NC(=O)COCC(C)(COCCOCCOCCNc2cccc3c2C(=O)N(C2CCC(=O)NC2=O)C3=O)COCCOCCOCCOC(=O)C[C@@H]2N=C(c3ccc(Cl)cc3)c3c(sc(C)c3C)-n3c(C)nnc32)C(C)(C)C)cc1 (mixture of isomers) [AB3062 (23), (17S)-11-((2-(2-(2-((2-(2,6-dioxopiperidin-3-yl)-1,3-dioxoisoindolin-4-yl)amino)ethoxy)ethoxy)ethoxy)methyl)-17-((2S,4R)-4-hydroxy-2-((4-(4-methylthiazol-5-yl)benzyl)carbamoyl)pyrrolidine-1-carbonyl)-11,18,18-trimethyl-15-oxo-3,6,9,13-tetraoxa-16-azanonadecyl 2-((S)-4-(4-chlorophenyl)-2,3,9-trimethyl-6H-thieno[3,2-f][1,2,4]triazolo[4,3-a][1,4]diazepin-6-yl)acetate] | 104 nM |
| 2.9 ± 0.3 nM | 1 ± 0.2 nM | 2.2 ± 0.1 nM | 3.5 ± 0.3 nM | – | 113 ± 3.2 nM | – | – | – | – | – | ~80% | 1 µM | Cc1ncsc1-c1ccc(CNC(=O)[C@@H]2C[C@@H](O)CN2C(=O)[C@@H](NC(=O)COCC(COCCOCCOCCNc2cc3c(cc2F)C(=O)N(C2CCC(=O)NC2=O)C3=O)(COCCOCCOCCOC(=O)C[C@@H]2N=C(c3ccc(Cl)cc3)c3c(sc(C)c3C)-n3c(C)nnc32)COCCOCCOCCOC(=O)C[C@@H]2N=C(c3ccc(Cl)cc3)c3c(sc(C)c3C)-n3c(C)nnc32)C(C)(C)C)cc1 (mixture of isomers) [AB3124 (86)] | – |
